Among the data in ChEMBL document CHEMBL5634207, “Helical sulfonyl-γ-AApeptides for the inhibition of HIV-1 fusion and HIF-1α signaling” (RSC Med Chem, 2024) are Kd, IC50 and CC50 values, retold here.

The target of data set [1] is Hypoxia-inducible factor 1-alpha (Homo sapiens, UniProt Q16665). As to the kind of experiment: Binding affinity to HIF-1alpha (unknown origin) assessed as dissociation constant.
For data set [2], the system named is Human immunodeficiency virus 1. The experiment in a line: Antiviral activity against HIV-1 IIIB infected in human MT2 cells incubated overnight by ELISA method. Type of data set: functional, organism-based. To be noted: Human immunodeficiency virus 1, MT2.
Data set [3] in a line: Cytotoxicity against human MT2 cells. In kind it is toxicity, cell-based.

Hypoxia-inducible factor 1-alpha, sequence (Q16665 whole entry): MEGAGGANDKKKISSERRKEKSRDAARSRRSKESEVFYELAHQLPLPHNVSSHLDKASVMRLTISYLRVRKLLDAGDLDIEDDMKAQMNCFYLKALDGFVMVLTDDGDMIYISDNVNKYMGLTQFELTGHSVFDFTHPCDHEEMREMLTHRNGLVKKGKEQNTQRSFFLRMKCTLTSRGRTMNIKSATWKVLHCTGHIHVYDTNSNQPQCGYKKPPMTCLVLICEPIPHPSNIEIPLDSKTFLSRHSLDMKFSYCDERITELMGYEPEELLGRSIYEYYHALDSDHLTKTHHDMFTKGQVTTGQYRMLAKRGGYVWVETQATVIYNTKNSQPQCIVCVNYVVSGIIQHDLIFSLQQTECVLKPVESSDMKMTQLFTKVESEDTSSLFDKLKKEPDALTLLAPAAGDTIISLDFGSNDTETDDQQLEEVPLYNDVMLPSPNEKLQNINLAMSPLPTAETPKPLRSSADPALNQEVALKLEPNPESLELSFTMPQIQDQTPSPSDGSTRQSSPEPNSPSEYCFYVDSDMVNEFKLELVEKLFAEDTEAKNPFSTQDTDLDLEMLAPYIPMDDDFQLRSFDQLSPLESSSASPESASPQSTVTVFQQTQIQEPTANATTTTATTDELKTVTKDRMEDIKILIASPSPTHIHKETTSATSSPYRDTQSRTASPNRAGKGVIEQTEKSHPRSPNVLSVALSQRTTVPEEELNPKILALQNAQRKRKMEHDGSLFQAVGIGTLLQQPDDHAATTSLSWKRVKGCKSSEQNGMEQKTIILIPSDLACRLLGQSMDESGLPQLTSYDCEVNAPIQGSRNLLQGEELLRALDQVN

As a reminder, the Kd is the concentration at which binding is half-saturated. For `CC(=O)N[C@@H](CCC(=O)O)CN(CC(=O)N[C@@H](CC(C)C)CN(CC(=O)N[C@@H](C)CN(CC(=O)N[C@@H](CCC(=O)O)CN(CC(=O)N[C@@H](CC(C)C)CN(CC(N)=O)S(=O)(=O)CC(C)C)S(C)(=O)=O)S(=O)(=O)CC(C)C)S(=O)(=O)CCN)S(=O)(=O)CC(C)C`, the Kd in data set [1] turned out to be 0.489 µM.

On to `CC(=O)N[C@@H](CC(C)C)CN(CC(=O)N[C@@H](CCC(=O)O)CN(CC(=O)N[C@@H](CC(C)C)CN(CC(=O)N[C@@H](CCCCN)CN(CC(=O)N[C@@H](CC(C)C)CN(CC(N)=O)S(=O)(=O)CCN)S(C)(=O)=O)S(C)(=O)=O)S(=O)(=O)CC(C)C)S(C)(=O)=O`, for which the Kd in data set [1] was determined as 0.097 µM.

`CC(=O)N[C@@H](CCC(=O)O)C(=O)N[C@@H](CC(C)C)CN(CC(=O)N[C@@H](CC(C)C)CN(CC(=O)N[C@@H](CC(C)C)CN(CC(=O)N[C@@H](C)CN(CC(=O)N[C@@H](C)CN(CC(=O)N[C@@H](CCC(N)=O)C(N)=O)S(=O)(=O)CC(C)C)S(C)(=O)=O)S(=O)(=O)CC(C)C)S(=O)(=O)CCN)S(=O)(=O)CC(C)C`: in data set [1], the Kd is 0.514 µM.

Regarding Ac-EELLRALDQV-OH, the Kd in data set [1] is more than 10 µM.

Broadly, the IC50 is the concentration at which inhibition is half-maximal. Usually CC50 stands for the concentration giving 50% cytotoxicity. In data set [2], enfuvirtide registered a concentration for half-maximal inhibition (IC50) of 0.036 µM. The molecule further showed a CC50 in data set [3] of more than 100 µM.
